Experimental data taken from PubChem BioAssay AID256 (DTP/NCI, 2004).
Values joined by “and” are separate entries in the source; they are usually repeats but may differ in a detail not shown here. Equal values may be shown once. Inconclusive results and toxic doses are left out. Rule for the calls: active = survival T/C of 150% or more; inactive = T/C below 125% in these data.

System: CD2F1 mice, L1210 leukemia ip, survival T/C
Test: NCI In Vivo Anticancer Drug Screen. Data for tumor model L1210 Leukemia (intraperitoneal) in CD2F1 (CDF1) mice
Settings: endpoint: mean survival time, higher = longer survival
Method in brief: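 Each value reflects a quotient of treated over vehicle control outcomes in mice with a transplanted tumor.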

[1] = dose: 50.0 mg/kg/injection, schedule: Q04DX003 (ip), vehicle: saline with Tween-80
[2] = dose: 100.0 mg/kg/injection, schedule: Q04DX003 (ip), vehicle: saline with Tween-80
[3] = dose: 200.0 mg/kg/injection, schedule: Q04DX003 (ip), vehicle: saline with Tween-80

Measured: T/C

Clc1ccccc1-c1nc2ccccc2[nH]1
inactive: [1] 98 % of control | [2] 96 % of control | [3] 96 % of control

CN(C)S(=O)(=O)c1ccccc1C1(O)c2ccccc2-c2ccccc21
inactive: dose: 50.0 mg/kg/injection, schedule: Q01DX009 (ip), vehicle: saline with Tween-80 87 % of control | dose: 100.0 mg/kg/injection, schedule: Q01DX009 (ip), vehicle: saline with Tween-80 87 % of control | [2] 93 % of control | [3] 86 % of control

CN(C)CCNC1=C(Cl)C(=O)c2ccccc2C1=O
inactive: dose: 6.25 mg/kg/injection, schedule: Q04DX003 (ip), vehicle: saline with Tween-80 97 % of control | dose: 12.5 mg/kg/injection, schedule: Q04DX003 (ip), vehicle: saline with Tween-80 101 % of control | dose: 25.0 mg/kg/injection, schedule: Q04DX003 (ip), vehicle: saline with Tween-80 91 % of control and 102 % of control

COC(=O)C(CS)NC(=O)CCNC(C)=O (stereo unspecified)
inactive: dose: 12.5 mg/kg/injection, schedule: Q01DX009 (ip), vehicle: water 97 % of control | dose: 25.0 mg/kg/injection, schedule: Q01DX009 (ip), vehicle: water 100 % of control | dose: 50.0 mg/kg/injection, schedule: Q01DX009 (ip), vehicle: water 97 % of control | dose: 100.0 mg/kg/injection, schedule: Q01DX009 (ip), vehicle: water 104 % of control | dose: 200.0 mg/kg/injection, schedule: Q01DX009 (ip), vehicle: water 100 % of control

C=COCCSCC
inactive: dose: 50.0 mg/kg/injection, schedule: Q04DX003 (ip), vehicle: saline 98 % of control | dose: 100.0 mg/kg/injection, schedule: Q01DX001 (ip), vehicle: saline 98 % of control | dose: 100.0 mg/kg/injection, schedule: Q04DX003 (ip), vehicle: saline 98 % of control | dose: 200.0 mg/kg/injection, schedule: Q01DX001 (ip), vehicle: saline 97 % of control | dose: 200.0 mg/kg/injection, schedule: Q04DX003 (ip), vehicle: saline 104 % of control | dose: 400.0 mg/kg/injection, schedule: Q01DX001 (ip), vehicle: saline 101 % of control

C=CCc1cn(C2CC(O)C(CO)O2)c(=O)[nH]c1=O (stereo unspecified)
inactive: dose: 12.5 mg/kg/injection, schedule: Q01DX009 (ip), vehicle: saline 94 % of control and 104 % of control | dose: 25.0 mg/kg/injection, schedule: Q01DX009 (ip), vehicle: saline 101 % of control and 107 % of control | dose: 50.0 mg/kg/injection, schedule: Q01DX009 (ip), vehicle: saline 95 % of control and 108 % of control | dose: 100.0 mg/kg/injection, schedule: Q01DX009 (ip), vehicle: saline 103 % of control and 110 % of control | dose: 200.0 mg/kg/injection, schedule: Q01DX009 (ip), vehicle: saline 104 % of control and 106 % of control | dose: 400.0 mg/kg/injection, schedule: Q01DX009 (ip), vehicle: saline 118 % of control and 111 % of control (2×)

CS(=O)(=O)OC(C(Br)CBr)C(OS(C)(=O)=O)C(Br)CBr (stereo unspecified)
inactive: dose: 100.0 mg/kg/injection, schedule: Q01DX001 (ip), vehicle: Klucel (hydroxypropylcellulose) (HPC) 87 % of control | dose: 200.0 mg/kg/injection, schedule: Q01DX001 (ip), vehicle: Klucel (hydroxypropylcellulose) (HPC) 90 % of control | dose: 400.0 mg/kg/injection, schedule: Q01DX001 (ip), vehicle: Klucel (hydroxypropylcellulose) (HPC) 88 % of control

ON=C(CCl)CCl
inactive: dose: 1.56 mg/kg/injection, schedule: Q01DX009 (ip), vehicle: saline 96 % of control | dose: 3.12 mg/kg/injection, schedule: Q01DX009 (ip), vehicle: saline 96 % of control | dose: 6.25 mg/kg/injection, schedule: Q01DX009 (ip), vehicle: saline 93 % of control

Cc1cc(C)c(CCl)cc1CCl
inactive: dose: 12.5 mg/kg/injection, schedule: Q01DX009 (ip), vehicle: saline with Tween-80 100 % of control | dose: 25.0 mg/kg/injection, schedule: Q01DX009 (ip), vehicle: saline with Tween-80 98 % of control | [1] 103 % of control
